Measured values taken from patent publication US6403632B1, “Lactam metalloprotease inhibitors” (priority 2000, dated 2002).

Test system: cartilage degradation
Assay: Acute Cartilage Degradation Rat Model
Format: in vivo
Settings: rats
Description: Acute Cartilage Degradation Rat Model A novel in vivo model of acute cartilage degradation in rats has been characterized as a method to determine the proteoglycan content in the synovial fluid after the induction of cartilage degradation.

COc1ccc2c(c1)c(CC(=O)O)c(C)n2C(=O)c1ccc(Cl)cc1 [Indomethacin]
inhibition of cartilage degradation, as measured by increased proteoglycan content in the synovial fluid: inactive
